The text below walks through data of patent US12214015B2, “Use of c-type natriuretic peptide variants to treat osteoarthritis” (priority 2015, dated 2025).

Bridges are numbered along the chain shown (N, C = ends). Where no end group is shown, it is not given here.

The conditions of data set [1]: rat, in vivo.
Protocol: (§1) As summarized in Table 6, groups of rats were treated with vehicle, Pro-Gly-CNP-37, or Gly-CNP-37. The dose route was intraarticular (IA) or subcutaneous (SC). The dose scheduling was either intraarticular administration three times per week (M, W, F) for 3 weeks (TIW×3W) or subcutaneous administration once daily for approximately 3 weeks (QD×3W). […] IA injections were given as a fixed dose whereas SC injections were given at a given dose per weight based on the most recently recorded body weight. For all rats, body weights were measured predose. For a 300-gram rat, the weekly IA dose regimen for the low, middle, and high levels was approximately equivalent to 15, 50, and 150 μg/kg/day, respectively.
(§2) The pharmacokinetic (PK) and pharmacodynamic (PD) properties of the CNP variants were evaluated. For the PK/PD analysis, timed blood collections were performed on 3 rats/group/time point as follows: 15, 30, 60, and 120 minutes post dosing for the IA groups and 5, 15, 30, 60, and 120 minutes post dosing for the SC groups. After blood collection, synovial lavage fluid (SLF, ˜50 μL/knee) was collected from each rat's left (normal) and right (operated) knee.
(§3) Individual plasma samples were analyzed for Pro-Gly-SNP-37 levels and mean concentration vs. time profiles were analyzed using a non-compartmental model for extravascular administration in Phoenix WinNonlin software.
The nature of data set [2]: Body weight gain, late stage rat osteoarthritis study (Example 3). Format: in vivo. From the text: A model of late stage osteoarthritis was used to evaluate the efficacy of Pro-Gly-CNP-37 in pre-developed osteoarthritis (i.e., primary osteoarthritis). As described above in Examples 1 and 2, osteoarthritis was induced in the rear legs of rats by severing the meniscus. However, in contrast to Examples 1 and 2, the lesion pathology was allowed to progress for three weeks before IA or SC treatment with Pro-Gly-CNP-37 thereby simulating pre-existing OA (i.e., primary osteoarthritis). The overall study design is outlined in Table 9. In particular, male Lewis rats underwent a unilateral medial meniscal tear surgery on Study Day 0; administration of control vehicle or Pro-Gly-CNP-37 began on Study Day 21; and animals were euthanized at scheduled time points following the last dose on Study Day 22 (Groups 1-4) or Study Day 40 (Groups 5-11). The primary endpoints evaluated included histopathological examination of chondrocyte death/cartilage degeneration in the knee.

A further data set is described as follows: in vivo. The note with it: rat.
In another data set the target is T1, NPR-B (Homo sapiens, UniProt P20594).
T1 sequence (P20594 23-1047): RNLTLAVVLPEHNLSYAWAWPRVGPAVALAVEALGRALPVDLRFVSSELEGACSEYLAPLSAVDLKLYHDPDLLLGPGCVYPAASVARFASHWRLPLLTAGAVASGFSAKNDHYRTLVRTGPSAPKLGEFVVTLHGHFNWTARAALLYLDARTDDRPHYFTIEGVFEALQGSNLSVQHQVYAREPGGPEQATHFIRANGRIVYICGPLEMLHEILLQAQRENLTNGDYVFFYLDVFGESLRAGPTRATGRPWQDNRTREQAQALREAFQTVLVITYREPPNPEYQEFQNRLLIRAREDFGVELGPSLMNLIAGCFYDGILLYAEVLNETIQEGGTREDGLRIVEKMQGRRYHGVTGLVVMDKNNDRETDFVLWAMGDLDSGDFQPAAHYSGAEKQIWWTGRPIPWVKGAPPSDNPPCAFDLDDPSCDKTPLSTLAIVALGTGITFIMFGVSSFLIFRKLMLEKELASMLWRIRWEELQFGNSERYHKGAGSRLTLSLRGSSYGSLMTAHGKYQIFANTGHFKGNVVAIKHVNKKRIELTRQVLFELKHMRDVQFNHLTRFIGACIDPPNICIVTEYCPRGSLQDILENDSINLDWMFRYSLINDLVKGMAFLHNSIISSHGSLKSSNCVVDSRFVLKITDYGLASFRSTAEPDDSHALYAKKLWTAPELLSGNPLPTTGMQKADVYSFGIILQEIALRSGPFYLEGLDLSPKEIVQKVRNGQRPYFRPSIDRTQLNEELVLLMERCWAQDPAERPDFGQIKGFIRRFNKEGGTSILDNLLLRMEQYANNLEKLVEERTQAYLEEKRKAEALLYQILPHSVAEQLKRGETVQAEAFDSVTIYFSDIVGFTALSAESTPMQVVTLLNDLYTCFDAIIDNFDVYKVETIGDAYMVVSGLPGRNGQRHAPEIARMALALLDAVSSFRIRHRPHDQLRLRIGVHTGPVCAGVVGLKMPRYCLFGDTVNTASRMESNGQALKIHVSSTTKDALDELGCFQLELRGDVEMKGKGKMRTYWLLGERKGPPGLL
As to the kind of experiment: NPR-B signaling studies. Format: biochemical. The text has this: Natural substrates of NEP are small and natriuretic peptides (about 2.2 to about 3.2 kDa) are the largest of the natural substrates. According to X-ray crystallographic analyses, the NEP active-site is buried deep inside a central cavity, effectively restricting the size of substrate molecules to no more than about 3 kDa (Oefner et al., J. Mol. Biol., 296: 341-349 (2000)).
The present disclosure encompasses CNP variants designed for improved NPR-B selectivity based on a homology-based structural model of the NPR-B/CNP complex. Combining the experimental and computational structure data of natriuretic peptides bound to the various receptors with the published functional data, CNP variants were generated that continue to bind to NPR-B, but can potentially have reduced affinity to the NPR-C clearance receptor. […] Accordingly, CNP variants were generated to replace the corresponding Gly8 residue with a larger residue (Ser, Val, Thr, or Asn) to disrupt the CNP binding to NPR-C without affecting its binding to NPR-B. Further, one or more mutations were introduced at the C-terminal end of CNP, encompassing Gly15 to Gly21, which is predicted to interact with receptor-specific residues, based on the detailed structural analyses of the receptor/peptide complexes. […]

Protocol for in vivo: as §1, §2, §3

Take `CC[C@H](C)[C@@H]1NC(=O)[C@H](CCCNC(=N)N)NC(=O)[C@H](CC(=O)O)NC(=O)[C@H](CC(C)C)NC(=O)[C@H](CCCCN)NC(=O)[C@H](CC(C)C)NC(=O)CNC(=O)[C@H](Cc2ccccc2)NC(=O)[C@@H](NC(=O)CNC(=O)[C@H](CCCCN)NC(=O)[C@H](CO)NC(=O)[C@H](CC(C)C)NC(=O)CNC(=O)[C@H](CCCCN)NC(=O)[C@H](CCCCN)NC(=O)[C@H](CC(N)=O)NC(=O)[C@H](C)NC(=O)CNC(=O)[C@H](CCCCN)NC(=O)[C@H](Cc2ccc(O)cc2)NC(=O)[C@H](CCCCN)NC(=O)[C@H](CCCNC(=N)N)NC(=O)[C@H](C)NC(=O)[C@H](CC(N)=O)NC(=O)[C@@H]2CCCN2C(=O)[C@H](Cc2c[nH]cn2)NC(=O)[C@H](CCC(=O)O)NC(=O)[C@H](CCC(N)=O)NC(=O)CNC(=O)[C@@H]2CCCN2)CSSC[C@@H](C(=O)O)NC(=O)CNC(=O)[C@H](CC(C)C)NC(=O)CNC(=O)[C@H](CO)NC(=O)[C@H](CCSC)NC(=O)[C@H](CO)NC(=O)CNC1=O` [Pro-Gly-CNP-37]: in data set [1], the exposure vs dose entry is “generally dose-proportional”. In addition, the “appearance in systemic circulation” value in data set [1] (sc) is recorded as “appeared rapidly in systemic circulation”. In data set [1] (sc, 150 ug/kg), the CL is given as 121 mL/min. In addition, in data set [2] (105 μg IA vs IA vehicle), the body weight gain result was “significantly reduced”. Also, in data set [2] (150 μg/kg SC vs SC vehicle), the body weight gain entry was “significantly reduced”. Moreover, the “body weight change (FIG. 27)” value in data set [2] (treated animals, IA and SC) was “reduced body weight change”. For the same compound, in the data set “in vivo” (10.5 ug), the AUC(0-t) (commonly exposure summed from dosing to a finite time, without extrapolation to infinity) was 28.6 ng·h/mL; the peak level (Cmax) was 33.8 ng/mL; the Tmax (usually the time at which the peak concentration occurs) was 15 min; the clearance – broadly, the volume of plasma or blood freed of the substance per unit of time – is 5.77 mL/min. Also, in the data set “in vivo” (10.5 ug), the half-life (as a rule, the time in which the quantity being followed falls by half) stood at 27 min. For the same compound, in “in vivo” (35.5 ug), the AUC(0-t) was 99 ng·h/mL, the concentration peaked (Cmax) at 110 ng/mL, the Tmax was 15 min and the clearance was determined as 5.36 mL/min. Also, the half-life in “in vivo” (35.5 ug) came to 34.9 min. For the same compound, in the data set “in vivo” (105 ug), the exposure AUC(0-t) is 147 ng·h/mL; the Cmax (as a rule, the highest concentration seen after dosing) is 357 ng/mL; the time of peak concentration (Tmax) is 15 min; the clearance was found to be 9.19 mL/min. In the data set “in vivo” (105 ug), this compound registered a half-life of 38.1 min. In addition, in “in vivo” (sc, 150 ug/kg), the AUC(0-t) is 16.3 ng·h/mL, the concentration peaked (Cmax) at 28.4 ng/mL, the Tmax is 15 min and the half-life stood at 23.8 min.

For the compound “CFGLKLDRIGSMSGLGC (disulfide 1-17 (inferred)) [CNP-17]”, the “binding and activation of NPR-B compared with wtCNP-22” value with NPR-B was “can still bind and activate NPR-B similarly”.

Consider “DLRVDTKSRAAWARLLQEHPNARKYKGANKKGLSKGCFGLKLDRIGSMSGLGC (ends and bridges not checked; cysteine pairing not given here) [CNP-53]”, for which the “binding and activation of NPR-B compared with wtCNP-22” value with NPR-B is “can still bind and activate NPR-B similarly”.
